Data: ChEMBL document CHEMBL3351580, “Pyrano-isochromanones as IL-6 inhibitors: synthesis, in vitro and in vivo antiarthritic activity” (J Med Chem, 2014)
Calls of active or inactive are those of the source. No cut-off for these calls is given here.

Legend:
Mus musculus [1] = assay: Antiarthritic activity in DBA/1J mouse collagen-induced arthritis model assessed as reduction in TNFalpha level at 5 mg/kg, po administered once daily for 49 days starting from onset of disease and measured after 3 to 49 days of disease onset by ELISA method; assay type: functional, organism-based; design: dose 5 mg/kg
THP-1 [2] = assay: Inhibition of LPS-induced TNFalpha production in human THP1 cells after 24 hrs; assay type: functional, cell-based; conditions: THP-1, 24 h
Mus musculus [3] = assay: Antiarthritic activity in DBA/1J mouse collagen-induced arthritis model assessed as reduction in anticollagen antibody IgG1 level at 5 mg/kg, po administered once daily for 49 days starting from onset of disease and measured after 14 days of disease onset by ELISA method; assay type: functional, organism-based; design: dose 5 mg/kg
Mus musculus [4] = assay: Antiarthritic activity in DBA/1J mouse collagen-induced arthritis model assessed as reduction in IL-1beta level at 5 mg/kg, po administered once daily for 49 days starting from onset of disease and measured after 3 to 49 days of disease onset by ELISA method; assay type: functional, organism-based; design: dose 5 mg/kg
Mus musculus [5] = assay: Antiarthritic activity in DBA/1J mouse collagen-induced arthritis model assessed as reduction in anticollagen antibody IgG2a level at 5 mg/kg, po administered once daily for 49 days starting from onset of disease and measured after 14 days of disease onset by ELISA method; assay type: functional, organism-based; design: dose 5 mg/kg
B-cell = assay: Inhibition of LPS-induced cell proliferation of B cells (unknown origin) at 10 uM after 72 hrs by MTT assay; assay type: functional
Mus musculus [6] = assay: Antiarthritic activity in DBA/1J mouse collagen-induced arthritis model assessed as reduction in paw swelling at 5 mg/kg, po administered once daily for 49 days starting from onset of disease; assay type: functional; conditions: 1176 h
[7] = Inhibition of concanavalin A-induced cell proliferation of T cells (unknown origin) at 10 uM after 72 hrs by MTT assay; assay type: functional
Mus musculus [8] = assay: Antiarthritic activity in DBA/1J mouse collagen-induced arthritis model assessed as reduction in anticollagen antibody IgG2a level at 5 mg/kg, po administered once daily for 49 days starting from onset of disease and measured after 49 days of disease onset by ELISA method; assay type: functional, organism-based; design: dose 5 mg/kg
THP-1 [9] = assay: Inhibition of LPS-induced IL6 production in human THP1 cells after 24 hrs; assay type: functional, cell-based; conditions: THP-1, 24 h
Mus musculus [10] = assay: Antiarthritic activity in DBA/1J mouse collagen-induced arthritis model assessed as reduction in IL6 level at 5 mg/kg, po administered once daily for 49 days starting from onset of disease and measured after 3 to 49 days of disease onset by ELISA method; assay type: functional, organism-based; design: dose 5 mg/kg
Mus musculus [11] = assay: Antiarthritic activity in DBA/1J mouse collagen-induced arthritis model assessed as reduction in anticollagen antibody IgG1 level at 5 mg/kg, po administered once daily for 49 days starting from onset of disease and measured after 49 days of disease onset by ELISA method; assay type: functional, organism-based; design: dose 5 mg/kg

With `C[C@H]1C[C@H]2[C@@H]3CCC4=CC(=O)C=C[C@]4(C)[C@@]3(F)[C@@H](O)C[C@]2(C)[C@@]1(O)C(=O)CO` [BETAMETHASONE] the inhibition (Mus musculus [1]) was “Active”, the IC50 (THP-1 [2]) was 0.013 µM and the inhibition (Mus musculus [3]) was “Active”. The inhibition (Mus musculus [4]) was “Active”, the inhibition (Mus musculus [5]) was “Active” and the inhibition at 10 µM (B-cell) was 28.1%. For the same molecule, the inhibition in vivo at 5 mg/kg (Mus musculus [6]) was 46%, the inhibition at 10 µM [7] was 42.6% and the inhibition (Mus musculus [8]) was “Active”. For the same molecule, the IC50 (THP-1 [9]) was 0.022 µM, the inhibition (Mus musculus [10]) was “Active” and the inhibition (Mus musculus [11]) was “Active”.
